Tests used:
H9c2 cardiomyoblasts [1] = test: H9c2 viability after oxidative challenge, direct treatment with Celastrol combinations; format: cell-based, rat; conditions: 1-hour treatment combined with Celastrol; 1 mM H2O2 for 1 hour
[2] = system: human mesenchymal stem cells (hMSC); test: mRNA expression in hMSC by real-time PCR; format: cell-based; conditions: FIGS. 25A, 25B, 26A to 26D
From the text: FIG. 25A is a table representing mRNA expression of selected genes measured by real-time PCR in human mesenchymal stem cells (hMSC) conditioned with Celastrol alone or in combination with selected adjunct agents. Results are expressed as fold change versus Vehicle-treated cells.
FIG. 25B is a table representing mRNA expression of selected genes measured by real-time PCR in human mesenchymal stem cells (hMSC) conditioned with selected Celastrol analogs alone or in combination with selected adjunct agents. Results are expressed as fold change versus Vehicle-treated cells.
Results are expressed as fold change versus Vehicle-treated cells. (Arbitrary angiogenic index: (VEGFa+FGF2+SDF1)*2) (A=Additive effect; S=Synergistic effect).
To test the second main condition, MSCs were treated with the candidate pharmaco-optimizers for 1 hour, followed by 3 hours washout period. Cell mRNA was extracted and expression of genes of interest was quantified by real time PCR. In additional MSC cultures, cells were treated for one hour, washed and cultured in low serum media for 24 hours. The media containing paracrine factors secreted by MSCs was then placed in contact with H9c2 cardiomyoblast cell line. H9c2 cells were then submitted to the hypoxia/serum starvation (<1% O2 in hypoxia chamber in low serum media for 48 hours) or oxidative stress (incubation in media for 1 hour spiked with 0-1 mM H2O2). Viability status of H9c2 cells was evaluated using the LIVE/DEAD assay as detailed above.

[3] = system: human mesenchymal stem cells (hMSCs); test: VEGFa protein secreted by hMSC into culture medium; format: cell-based; conditions: 1-hour treatment combined with Celastrol
H9c2 cardiomyoblasts [4] = test: HO-1 and VEGFa mRNA in H9c2 cardiomyoblasts by real-time PCR; format: cell-based, rat; conditions: H9c2, 1-hour with Celastrol plus adjunct, 3 hour washout in normoxic or hypoxic condition
From the text: Results are expressed as fold change versus Vehicle-treated h9c2.

H9c2 cardiomyoblasts [5] = test: H9c2 viability under hypoxia/serum starvation (LIVE/DEAD); format: cell-based, rat; conditions: 1 uM
Experimental: For survival to hypoxic challenge and oxidative challenge, H9c2 cardiomyoblasts are submitted to the hypoxia/serum starvation (<1% O2 in hypoxia chamber in low serum media for 48 hours) or oxidative stress (incubation in media for 1 hour spiked with 0-1 mM H2O2). Viability status of H9c2 cells was evaluated using the LIVE/DEAD assay.

H9c2 cardiomyoblasts [6] = test: H9c2 viability under hypoxia/reoxygenation stress; format: cell-based, rat; conditions: 1 uM
Experimental: Next, the hypoxia/reoxygenation challenge is performed. Briefly, viability analysis was performed in rat H9c2 cardiomyoblasts as previously reported. For hypoxia/reoxygenation stress, cells were cultured in DMEM no glucose (Life Technologies), serum starved and placed in hypoxic conditions (<1% O2) for 18 h. At reoxygenation (normoxic conditions), cells were treated with Celastrol (10^−10 to 10^−6 mol/L, Cayman Chemical, Ann Arbor, Mich.), Celastrol analogs or vehicle (Dimethyl sulfoxide (DMSO), Sigma-Aldrich Canada, Oakville, ON; final concentration<1% v/v) in DMEM high glucose 1% FBS for 1 h, then reoxygenation was continued in DMEM high glucose for an additional 5 h.

[7] = system: heat shock response (HSR); test: Heat shock response luciferase reporter assay in H9c2; format: cell-based, rat; conditions: H9c2, 10E-5 to 10E-10M, 4 hours, 3 hours washout
Experimental: (§1) H9c2 rat cardiomyoblasts were seeded at a density of 5,000 cells per well in 96 well plates in DMEM 10% FBS complete medium and transfected using lipofectamine with the Cignal Reporter Assay Heat shock response and Antioxidant response kits (SABiosciences, Qiagen) according to the manufacturers' protocol.

[8] = system: antioxidant responsive elements (ARE); test: Antioxidant response luciferase reporter assay in H9c2; format: cell-based, rat; conditions: H9c2, 10E-5 to 10E-10M, 4 hours, 3 hours washout
Experimental: as §1

Compound	ranking as adjunct agent in combination with Celastrol or Celastrol analogs (gene expression) [2]	protection of H9c2 cardiomyoblasts from hypoxia (H9c2 cardiomyoblasts [5])	protection of H9c2 cardiomyoblasts from hypoxia/reoxygenation stress (H9c2 cardiomyoblasts [6])	stimulation of reporter gene controlled by heat shock responsive elements (HSR) [7]	stimulation of reporter gene controlled by antioxidant responsive elements (ARE) [8]	further results
O=C(C=Cc1ccccc1O)C=Cc1ccccc1O [Analog 2HBA, Bis(2-hydroxybenzylidene)acetone]	among top adjunct agents	–	–	–	–	viability of H9c2 cells following oxidative challenge (H9c2 cardiomyoblasts [1]): synergistic increase in viability; VEGF protein after 48 hours in hypoxic condition ([3]; hypoxic, compared with normal culture): even greater expression of VEGF protein; VEGF protein after 48 hours in normal culture ([3]; normoxic): additive to synergistic increase in VEGF protein; mRNA expression of HO-1 (H9c2 cardiomyoblasts [4]): increased mRNA expression; mRNA expression of VEGFa (H9c2 cardiomyoblasts [4]): increased mRNA expression
Cc1c(O)c(O)cc2c1[C@H](C[N+](=O)[O-])C=C1[C@@]2(C)CC[C@@]2(C)[C@@H]3C[C@](C)(C(=O)O)CC[C@]3(C)CC[C@]12C [Analog 2]	–	effective	effective	–	–	–
CC1=C(O)C(=O)C=C2C1=CC=C1[C@@]2(C)CC[C@@]2(C)[C@@H]3C[C@](C)(C(=O)NCCO)CC[C@]3(C)CC[C@]12C [Analog 3]	–	effective	effective	among the most potent and efficient compounds tested	among the most potent and efficient compounds tested	ranking as HSP90 inhibitor from expression of HSPs, growth factors, antioxidant proteins/enzymes, cytokines, matrix remodeling proteins [2]: best HSP90 inhibitors
CC1=C(O)C(=O)C=C2C1=CC=C1[C@@]2(C)CC[C@@]2(C)[C@@H]3C[C@](C)(C(=O)NO)CC[C@]3(C)CC[C@]12C [Analog 4]	–	effective	effective	among the most potent and efficient compounds tested	among the most potent and efficient compounds tested	–
CC(C)c1cc2c(c(O)c1O)[C@@]13CCCC(C)(C)[C@@H]1C[C@@H]2OC3=O [Carnosol]	among top adjunct agents	–	–	–	–	–

Source: US11446265B2, “Reagents, compositions and methods for improving viability and function of cells, tissues and organs” (TARGA BIOMEDICAL, priority 2016, dated 2022)
